Where two headings read alike, the source gives them in different places. Bounds are passed on as bounds.

Results on seven compounds are retold here after patent publication US20190352276A1, “INHIBITORS OF BRUTON'S TYROSINE KINASE” (Joint Stock Company "Biocad", priority 2016, published 2019).

Series [1] deals with Mino (mantle cell lymphoma). The experiment in a line: Antiproliferative activity, Mino cells (Alamar Blue). The series is classed as cell-based. To be noted: Homo sapiens. The gist of the method:
(§1)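 After at least one passage post-thaw, cells were seeded at ≈3*10^4 per well in RPMI-1640 containing 10% FBS. They were treated with compound dilutions (DMSO under 1%) for 72 h and then with Alamar Blue for 14-16 h. Living-cell fluorescence at 540/590 nm gave IC50 values through logistic fitting.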

Series [2] is described as follows: Permeability through the monolayer of Caco-2 cells. It is filed as in vitro ADME. To be noted: human; for Papp A→B at 2 h, 10 μM / Papp B→A at 2 h, 10 μM: 2 h at 37° C.; for efflux ratio at 2 h, 10 μM: read-out: efflux (Papp B-A/Papp A-B). The method in brief:
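Caco-2 monolayers grown 21 days on 0.4 μm transwell filters, integrity checked with Lucifer Yellow. Compounds at 10 μM were added apically at pH 6.5 (A→B) or basolaterally at pH 7.4 with 1% BSA (B→A) and sampled after 2 h. Concentrations by HPLC; Papp calculated, efflux ratio as Papp B-A/Papp A-B.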
(In general: Caco-2 monolayers are a common model of the intestinal barrier.)

Series [3] in a line: General cytotoxicity on HepG2 cells (CC50; therapeutic index CC50 HepG2/IC50 Mino). The series is classed as cell-based. The note with it: human, HepG2 cells (hepatocellular carcinoma), 72 hours, Alamar Blue. The gist of the method:
(§2)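 Cells seeded at 2*10^4 per well in DMEM, compounds added after 24 h at 200 μM to 4 μM final and incubated 72 h. Viability read with Alamar Blue to derive CC50; therapeutic index is CC50 (HepG2) divided by IC50 (Mino).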
(In general: Alamar Blue is a resazurin reagent that responds to reducing activity.)

For series [4], the system named is HepG2 cells (hepatocellular carcinoma). The description is as above. It is filed as cell-based. To be noted: therapeutic index. The gist of the method:
as §2

For series [5], the target named is T1, recombinant Btk kinase enzyme (Homo sapiens, UniProt Q06187).
T1 construct: purchased SignalChem B10-10H
The experiment in a line: In vitro inhibition of Btk kinase activity (ADP-Glo). It is filed as biochemical. As for the experimental part:
To assess Btk kinase activity described herein, SignalChem kinase system was used. Btk kinase activity was determined in the reaction between recombinant Btk kinase enzyme (SignalChem #B10-10H) and Poly (4:1 Glu, Tyr) peptide substrate in the presence of the inhibitor.
Staurosporine (Abcam Biochemicals, ab146588) was used as a reference inhibitor and 0.1% DMSO in the reaction buffer—as a negative control. The solution of 0.5 mg/mL peptide substrate and 50 &M ATP in the same buffer were added; the solution was incubated for 180 minutes at 37° C. To detect the amount of ATP taken up during the kinase reaction, the equivalent amount of ADP (from the ADP Glo Detection Kit (Promega, #V9101)) was used according to the protocol. The reaction mixture was equilibrated to room temperature. 25 µL of ADP-Glo Reagent were added into each well; the plate was incubated for 40 minutes. 50 μL of Kinase Detection Reagent were added; the plate was incubated for 30 minutes. The luminescence was measured with multimode plate reader (Tecan Infinite M200Pro, Switzerland). IC50 values were calculated using Magellan 7.2 software (Tecan, Switzerland) approximating experimental points by four-parameter logistic model with the optimization by Levenberg-Marquardt.
In general terms: In ADP-Glo the light output rises with the ADP produced.

The subject of series [6] is Z-138 (mantle cell lymphoma). The experiment in a line: Antiproliferative activity, Z-138 cells (Alamar Blue). The series is classed as cell-based. The note with it: Homo sapiens. The method in brief: as §1
Series [7] has as its system DOHH2 (follicular lymphoma). The experiment in a line: Antiproliferative activity, DOHH2 cells (Alamar Blue). The note with it: Homo sapiens, DOHH-2, Table 10, 72 h, average of several tests. It is filed as cell-based. As for the experimental part:
Antiproliferative activity of BTK inhibitors was measured in cell-based bioassay on B-cells cultures: Mino (mantle cell lymphoma, ATCC® CRL-3000™), Z-138 (mantle cell lymphoma, ATCC® CRL-3001™) and DOHH2 (follicular lymphoma, Creative Bioarray CSC-C0219) using cell viability reagent Alamar Blue (Invitrogen, #DAL 1100). Cells were cultured in 10% FB S-supplemented (HyClone, #SH3008803/Gibco, #16140-071) RPMI-1640 (PanEco, #S330p) for at least 1 passage after thawing, washed with PBS and passaged in 96-well culture plates (Corning, #3599) with growth medium with 10% FBS (HyClone, #SH3008803/Gibco, #16140-071) and antibiotic (50 μg/ml of gentamicin (Biolot, #1.3.16))≈3*10^4 cells in 50 μl of medium per well.
The compounds were dissolved in DMSO and diluted with the assay medium to final concentrations ranging from […]. 150 μl of each diluted compound were then added to each well (final concentration of DMSO was less than 1%) and incubated at 37° C. in an incubator under 5% of CO2 for 72 h. After incubation, 20 μl of Alamar Blue reagent (Invitrogen, #DAL1100) were added to each well. The plates were shaked on an orbital shaker (Biosan, Latvia) and then incubated for 14-16 hours at 37° C. in the incubator.
The number of living cells were estimated, measuring the fluorescence signal at the excitation wavelength (REx) of 540 nm and the emission wavelength (λEm) of 590 nm on a microplate reader (Tecan Infinite M200Pro, Switzerland).
For each compound, IC50 was calculated using Magellan 7.2 software (Tecan, Switzerland) approximating experimental points by four-parameter logistic model with the optimization by Levenberg-Marquardt.

Series [8] can be described thus: Chemical stability in artificial gastric fluid (SGF without enzymes). The note with it: 10 μM in SGF without enzymes, pH=1.4, 37° C.
Series [9] can be described thus: Stability in human blood plasma. The note with it: 10 μM in pooled human blood plasma, incubated 4 hours at 37° C.
Where [10] appears, read: Table 10, 72 h, average of several tests.
Where [11] appears, read: Table 10, average of several tests.
[12] abbreviates: Table 8, ADP-Glo, read-out: IC50 kinase BTK.

T1 sequence (Q06187 whole entry): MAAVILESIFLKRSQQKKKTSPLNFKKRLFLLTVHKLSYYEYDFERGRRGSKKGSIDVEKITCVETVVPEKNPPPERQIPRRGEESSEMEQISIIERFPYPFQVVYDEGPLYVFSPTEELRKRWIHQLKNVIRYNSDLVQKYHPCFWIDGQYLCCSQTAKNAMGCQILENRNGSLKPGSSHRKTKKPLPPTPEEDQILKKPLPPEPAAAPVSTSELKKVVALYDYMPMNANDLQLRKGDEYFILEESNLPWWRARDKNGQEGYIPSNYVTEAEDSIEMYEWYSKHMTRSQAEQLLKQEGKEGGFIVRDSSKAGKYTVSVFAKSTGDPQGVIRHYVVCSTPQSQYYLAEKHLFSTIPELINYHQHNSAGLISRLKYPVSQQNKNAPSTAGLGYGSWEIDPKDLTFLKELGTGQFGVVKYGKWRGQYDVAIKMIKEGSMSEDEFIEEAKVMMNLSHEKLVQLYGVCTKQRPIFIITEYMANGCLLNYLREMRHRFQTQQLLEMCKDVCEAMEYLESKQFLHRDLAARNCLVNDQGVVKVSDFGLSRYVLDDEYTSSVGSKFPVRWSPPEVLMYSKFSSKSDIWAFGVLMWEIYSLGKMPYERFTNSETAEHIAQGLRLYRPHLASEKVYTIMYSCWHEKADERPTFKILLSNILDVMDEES

Usually IC50 stands for the concentration that inhibits the measured activity by half. In general, Papp A→B refers to how fast a substance crosses the layer from the apical side. A higher Papp A→B goes with ready permeation. What is called Papp B→A is how fast a substance crosses the layer from the basolateral side. By CC50 is commonly meant the concentration at which the toxic effect on the cells reaches its halfway point. A higher CC50 goes with lower toxicity to the cells. Regarding `C=CC(=O)N1CCC[C@@H](n2nc(-c3ccc(Oc4ccncc4)cc3)c3cncc(C#N)c32)C1` [BCD-BTK-123, (R)-1-(1-acryloylpiperidin-3-yl)-3-(4(pyridin-4-yloxy)phenyl)-1H-pyrazolo[4,3-c]pyridin-7-carbonitrile], in [1] (Table 11, 72 h), half-maximal inhibition (IC50) required 13200 nM. Also, in series [2], the Papp A→B at 2 h, 10 μM amounted to 14.8 ×10⁻⁶ cm/s; the Papp B→A at 2 h, 10 μM turned out to be 7.4 ×10⁻⁶ cm/s; the efflux ratio at 2 h, 10 μM turned out to be 0.5. For the same compound, the CC50 at 72 h in series [3] (Table 11) amounted to 50400 nM. Moreover, the “CC50 (HepG2)/IC50 (Mino)” value in [4] (Table 11) was found to be 3.81. In series [5] (Table 11, BTK kinase, read-out: IC50 kinase), the IC50 worked out at 1510 nM. The compound also displayed a half-inhibitory concentration (IC50) in series [6] (Table 11, 72 h) of 28000 nM.
For the compound `C=CC(=O)N1CCC[C@@H](n2nc(-c3ccc(C(=O)Nc4cc(C(F)(F)CC)ccn4)cc3)c3cncc(Cl)c32)C1` [BCD-BTK-215, (R)-4-(1-(1-acryloylpiperidin-3-yl)-7-chloro-1H-pyrazolo[4,3-c]pyridin-3-yl)-N-(4-(1,1-difluoropropyl)pyridin-2-yl)benzamide], the IC50 in series [1] (setting [10]) is 2930 nM; in series [5] (setting [12]), 35.8 nM; in [7] it was greater than 100000 nM; in series [6] (setting [10]) it was 8000 nM. This compound also came in with a CC50 at 72 h in series [3] (setting [11]) greater than 100000 nM. Besides, the “CC50 (HepG2)/IC50 (Mino)” value in [4] (Table 10) is listed as greater than 34.11.
On to `C=CC(=O)N1CCC[C@@H](n2nc(-c3ccc(C(=O)Nc4ccccn4)cc3)c3cncc(C#N)c32)C1` [BCD-BTK-228, (R)-4-(1-(1-acryloylpiperidin-3-yl)-7-cyano-1H-pyrazolo[4,3-c]pyridin-3-yl)-N-(pyridin-2-yl)benzamide], for which, in series [2], the Papp A→B at 2 h, 10 μM came out at 8 ×10⁻⁶ cm/s; the Papp B→A at 2 h, 10 μM worked out at 1.4 ×10⁻⁶ cm/s; the efflux ratio at 2 h, 10 μM came out at 0.17. The “Amount of substance in the sample in % (chemical stability)” value (“Amount of substance in the sample in %” below) in series [8] is on record as 99.9%. The IC50 in series [5] (setting [12]) stood at 38.9 nM. Also, the “Amount of substance in the sample, % (stability in human blood plasma)” value in series [9] was 85.2%.
For `C=CC(=O)N1CCC[C@@H](n2nc(-c3ccc(C(=O)Nc4ncccc4F)cc3)c3c(N)ncc(Cl)c32)C1` [BCD-BTK-233, (R)-4-(1-(1-acryloylpiperidin-3-yl)-4-amino-7-chloro-1H-pyrazolo[4,3-c]pyridin-3-yl)-N-(3-fluoropyridin-2-yl)benzamide], the IC50 in series [1] (setting [10]) came to 5440 nM; in series [5] (setting [12]) it was 11.5 nM; in series [7], 1110 nM; in series [6] (setting [10]), 4110 nM. Further, the “Amount of substance in the sample in %” value in series [8] is listed as 100%. Moreover, the CC50 at 72 h in series [3] (setting [11]) came out at 18400 nM. In addition, the “CC50 (HepG2)/IC50 (Mino)” value in series [4] (Table 10) is 3.39.
For `C=CC(=O)N1CCC[C@@H](n2nc(-c3ccc(C(=O)Nc4cc(C(F)(F)CCC)ccn4)cc3)c3cncc(F)c32)C1` [BCD-BTK-247, (R)-4-(1-(1-acryloylpiperidin-3-yl)-7-fluoro-1H-pyrazolo[4,3-c]pyridin-3-yl)-N-(4-(1,1-difluorobutyl)pyridin-2-yl)benzamide], the IC50 in [1] (setting [10]) is 5810 nM; in [5] (setting [12]), 14.7 nM; in series [7] it was greater than 100000 nM; in [6] (setting [10]) it was greater than 50000 nM. The compound also displayed a CC50 at 72 h in series [3] (setting [11]) greater than 100000 nM. Further, the “CC50 (HepG2)/IC50 (Mino)” value in series [4] (Table 10) was greater than 17.21.
`C=CC(=O)N1CCC[C@H](Cn2nc(-c3ccc(C(=O)Nc4ccccn4)cc3)c3cncc(Cl)c32)C1` [BCD-BTK-290, (S)-4-(1-((1-acryloylpiperidin-3-yl)methyl)-7-chloro-1H-pyrazolo[4,3-c]pyridin-3-yl)-N-(pyridin-2-yl)benzamide]: the “Amount of substance in the sample in %” value in series [8] was 100%. For the same compound, the IC50 in series [5] (setting [12]) amounted to 19.6 nM. The “Amount of substance in the sample, % (stability in human blood plasma)” value in [9] is 100.0%.
In the case of `CC#CC(=O)N1CCC[C@@H](n2nc(-c3ccc(C(=O)Nc4ccccn4)cc3)c3c(N)ncc(Cl)c32)C1` [BCD-BTK-295, (R)-4-(4-amino-1-(1-(but-2-ynoyl)piperidin-3-yl)-7-chloro-1H-pyrazolo[4,3-c]pyridin-3-yl)-N-(pyridin-2-yl)benzamide], the IC50 came to 2000 nM in [1] (setting [10]), 65.2 nM in [5] (setting [12]), 1940 nM in series [7] and 1190 nM in [6] (setting [10]). The CC50 at 72 h in series [3] (setting [11]) is 32500 nM. The “CC50 (HepG2)/IC50 (Mino)” value in series [4] (Table 10) is listed as 16.23.
